In assay [1] the target is T1, Prostaglandin G/H synthase 1 (Ovis aries) (UniProt P05979).
T1 sequence (whole entry): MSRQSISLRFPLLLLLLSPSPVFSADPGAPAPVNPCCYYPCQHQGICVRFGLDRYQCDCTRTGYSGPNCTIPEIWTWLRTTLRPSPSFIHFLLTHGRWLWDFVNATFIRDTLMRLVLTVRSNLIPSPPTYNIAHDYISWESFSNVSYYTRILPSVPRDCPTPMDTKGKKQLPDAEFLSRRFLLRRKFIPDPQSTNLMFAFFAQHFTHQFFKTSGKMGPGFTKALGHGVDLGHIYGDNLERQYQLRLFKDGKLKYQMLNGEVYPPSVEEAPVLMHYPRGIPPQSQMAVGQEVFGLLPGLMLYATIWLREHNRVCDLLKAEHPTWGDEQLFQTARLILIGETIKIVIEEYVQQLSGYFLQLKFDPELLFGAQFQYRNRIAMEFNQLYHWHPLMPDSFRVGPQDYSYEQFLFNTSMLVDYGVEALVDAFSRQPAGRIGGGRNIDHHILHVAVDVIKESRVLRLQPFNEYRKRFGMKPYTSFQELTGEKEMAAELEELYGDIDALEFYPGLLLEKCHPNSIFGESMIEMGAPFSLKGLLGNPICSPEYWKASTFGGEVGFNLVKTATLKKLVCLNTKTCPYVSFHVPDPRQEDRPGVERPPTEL
The assay is described as follows: Inhibition of sheep COX1 at 10 uM by enzyme immunoassay.

Assay [2] has as its target T2, Prostaglandin G/H synthase 1 (Ovis aries, UniProt P05979).
T2 sequence (P05979 whole entry): T1 sequence (whole entry)
The assay is described as follows: Inhibition of sheep COX1 by enzyme immunoassay.

For assay [3], the species on record is Ovis aries. Briefly: Selectivity index, ratio of IC50 for sheep COX1 to IC50 for sheep COX2.

Each structure is given as a SMILES string.

In ChEMBL document CHEMBL1221326, “Synthesis, biological evaluation, and docking studies of novel heterocyclic diaryl compounds as selective COX-2 inhibitors” (Bioorg Med Chem, 2010) one finds inhibition, IC50 and Ratio IC50 data, which are given here for 4 compounds.

Broadly, the inhibition is the relative decrease from the control value, in per cent. Read a high inhibition as strong suppression. In general, IC50 refers to the concentration that gives 50% inhibition. Low values mean inhibition by little substance, high ones a need for much substance. Compound `COc1ccc(C2=C(c3ccc4c(c3)oc(=O)n4C)COC2=O)cc1` came in with an inhibition in assay [1] of 59.8%. This compound also came in with an IC50 in assay [2] of 0.061 µM.
Compound `Cn1c(=O)oc2cc(-c3cc(C(F)(F)F)nn3-c3ccc(F)cc3)ccc21` came in with an inhibition in assay [1] of 55.5%. Also, the concentration for half-maximal inhibition (IC50) in assay [2] was determined as 6 µM. Also, in assay [3], the Ratio IC50 came out at 6.
In turn, `COc1ccc(-n2nc(C(F)(F)F)cc2-c2ccc3c(c2)oc(=O)n3C)cc1` returned an inhibition in assay [1] of 95.6%. In addition, the IC50 in assay [2] was 0.004 µM.
In assay [1], `Cn1c(=O)oc2cc(-c3cc(C(F)(F)F)nn3-c3ccc(Cl)cc3)ccc21` returned an inhibition of 91.2%. The IC50 in assay [2] is 1 µM.
